pEC50: −log10 of the molar value.
tested on: HIV-IIIb; experiment: Test A: Antiviral Assay in MT4 Cells; assay type: cell-based; conditions: Human immunodeficiency virus 1, IIIB, MT4, 120 h, Table 2; MT-4 cells infected with HIV-IIIb, 5 days of incubation, CellTiter-Glo; read-out: EC50
Outline: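 MT-4 cells pre-infected with HIV-IIIb (0.004 m.o.i.) at 37 °C, then exposed to 3-fold serial compound dilutions (10 concentrations, quadruplicate) in RPMI 1640/10% FBS. After 5 days at 37 °C, viability read by CellTiter-Glo luminescence.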

| Compound | pEC50 |
| --- | --- |
| Cc1cc2nc(-c3ccnc(-c4ccc5c(cnn5C)n4)c3)sc2c(-c2ccc(Cl)cc2)c1[C@H](OC(C)(C)C)C(=O)O [Compound 180, (S)-2-tert-butoxy-2-(7-(4-chlorophenyl)-5-methyl-2-(2-(1-methyl-1H-pyrazolo[4,3-b]pyridin-5-yl)pyridin-4-yl)benzo[d]thiazol-6-yl)acetic acid] | 8.30 |
| Cc1cc2c(c(-c3ccc(Cl)cc3)c1[C@H](OC(C)(C)C)C(=O)O)n(C1CCN(C)CC1)c(=O)n2C [Compound 181, (S)-2-tert-butoxy-2-(4-(4-chlorophenyl)-1,6-dimethyl-3-(1-methylpiperidin-4-yl)-2-oxo-2,3-dihydro-1H-benzo[d]imidazol-5-yl)acetic acid] | 7.57 |
| Cc1cc2nc(-c3cccn(-c4ccc5c(cnn5C)c4)c3=O)sc2c(-c2ccc(Cl)cc2)c1[C@H](OC(C)(C)C)C(=O)O [Compound 182, (S)-2-tert-butoxy-2-(7-(4-chlorophenyl)-5-methyl-2-(1-(1-methyl-1H-indazol-5-yl)-2-oxo-1,2-dihydropyridin-3-yl)benzo[d]thiazol-6-yl)acetic acid] | 7.10 |
| Cc1cc2nc(-c3ccnc(-c4ccc5c(c4)n(C)c(=O)n5C)c3)sc2c(-c2ccc(Cl)cc2)c1[C@H](OC(C)(C)C)C(=O)O [Compound 183, (S)-2-tert-butoxy-2-(7-(4-chlorophenyl)-2-(2-(1,3-dimethyl-2-oxo-2,3-dihydro-1H-benzo[d]imidazol-5-yl)pyridin-4-yl)-5-methylbenzo[d]thiazol-6-yl)acetic acid] | 7.74 |
| Cc1cc2nc(-c3ccnc(-c4cnc5c(c4)OCC(=O)N5)c3)sc2c(-c2ccc(Cl)cc2)c1[C@H](OC(C)(C)C)C(=O)O [Compound 184, (S)-2-tert-butoxy-2-(7-(4-chlorophenyl)-5-methyl-2-(2-(3-oxo-3,4-dihydro-2H-pyrido[3,2-b][1,4]oxazin-7-yl)pyridin-4-yl)benzo[d]thiazol-6-yl)acetic acid] | 7.72 |
| Cc1cc2nc(-c3ccnc(-n4ccc5cccnc5c4=O)c3)sc2c(-c2ccc(Cl)cc2)c1[C@H](OC(C)(C)C)C(=O)O [Compound 187, (S)-2-tert-butoxy-2-(7-(4-chlorophenyl)-5-methyl-2-(2-(8-oxo-1,7-naphthyridin-7(8H)-yl)pyridin-4-yl)benzo[d]thiazol-6-yl)acetic acid] | 7.60 |
| Cc1cc2nc(-c3ccnc(-c4ccc5c(=O)n(C)n(C)c5c4)c3)sc2c(-c2ccc(Cl)cc2)c1[C@H](OC(C)(C)C)C(=O)O [Compound 188, (S)-2-tert-butoxy-2-(7-(4-chlorophenyl)-2-(2-(1,2-dimethyl-3-oxo-2,3-dihydro-1H-indazol-6-yl)pyridin-4-yl)-5-methylbenzo[d]thiazol-6-yl)acetic acid] | 7.92 |
| Cc1cc2nc(-c3ccnc(-n4ncc5ccccc54)c3)sc2c(-c2ccc(Cl)cc2)c1[C@H](OC(C)(C)C)C(=O)O [Compound 189, (S)-2-(2-(2-(1H-indazol-1-yl)pyridin-4-yl)-7-(4-chlorophenyl)-5-methylbenzo[d]thiazol-6-yl)-2-tert-butoxy acetic acid] | 6.60 |
| Cc1cc2nc(-c3ccnc(-c4nn(C)c5ccccc45)c3)sc2c(-c2ccc(Cl)cc2)c1[C@H](OC(C)(C)C)C(=O)O [Compound 190, (S)-2-tert-butoxy-2-(7-(4-chlorophenyl)-5-methyl-2-(2-(1-methyl-1H-indazol-3-yl)pyridin-4-yl)benzo[d]thiazol-6-yl)acetic acid] | 6.95 |
| Cc1cc2nc(-c3ccnc(-c4ccc5c(ccc(=O)n5C)c4)c3)sc2c(-c2ccc(Cl)cc2)c1[C@H](OC(C)(C)C)C(=O)O [Compound 191, (S)-2-tert-butoxy-2-(7-(4-chlorophenyl)-5-methyl-2-(2-(1-methyl-2-oxo-1,2-dihydroquinolin-6-yl)pyridin-4-yl)benzo[d]thiazol-6-yl)acetic acid] | 8.00 |
| CNc1ccc2cc(-c3cc(-c4nc5cc(C)c([C@H](OC(C)(C)C)C(=O)O)c(-c6ccc(Cl)cc6)c5s4)ccn3)ccc2n1 [Compound 192, (S)-2-tert-butoxy-2-(7-(4-chlorophenyl)-5-methyl-2-(2-(2-(methylamino)quinolin-6-yl)pyridin-4-yl)benzo[d]thiazol-6-yl)acetic acid] | 7.92 |
| Cc1cc2nc(-c3ccnc(-c4ccc5nc(N)ccc5c4)c3)sc2c(-c2ccc(Cl)cc2)c1[C@H](OC(C)(C)C)C(=O)O [Compound 193, (S)-2-(2-(2-(2-aminoquinolin-6-yl)pyridin-4-yl)-7-(4-chlorophenyl)-5-methylbenzo[d]thiazol-6-yl)-2-tert-butoxyacetic acid] | 8.05 |
| Cc1cc2nc(-c3ccc4c(=O)n(C)n(C)c4c3)sc2c(-c2ccc(Cl)cc2)c1[C@H](OC(C)(C)C)C(=O)O [Compound 194, (S)-2-tert-butoxy-2-(7-(4-chlorophenyl)-2-(1,2-dimethyl-3-oxo-2,3-dihydro-1H-indazol-6-yl)-5-methylbenzo[d]thiazol-6-yl)acetic acid] | 7.68 |
| Cc1cc2nc(-n3ccc4ccncc4c3=O)sc2c(-c2ccc(Cl)cc2)c1[C@H](OC(C)(C)C)C(=O)O [Compound 195, (S)-2-tert-butoxy-2-(7-(4-chlorophenyl)-5-methyl-2-(1-oxo-2,7-naphthyridin-2(1H)-yl)benzo[d]thiazol-6-yl)acetic acid] | 7.96 |
| Cc1cc2nc(-c3ccnc(-c4cnc5c(c4)cc(C)n5C)c3)sc2c(-c2ccc(Cl)cc2)c1[C@H](OC(C)(C)C)C(=O)O [Compound 196, (S)-2-tert-butoxy-2-(7-(4-chlorophenyl)-2-(2-(1,2-dimethyl-1H-pyrrolo[2,3-b]pyridin-5-yl)pyridine-4-yl)-5-methylbenzo[d]thiazol-6-yl)acetic acid] | 7.48 |
| Cc1cc2nc(-c3cnc4c(c3)cc(C)n4C)sc2c(-c2ccc(Cl)cc2)c1[C@H](OC(C)(C)C)C(=O)O [Compound 197, (S)-2-tert-butoxy-2-(7-(4-chlorophenyl)-2-(1,2-dimethyl-1H-pyrrolo[2,3-b]pyridin-5-yl)-5-methylbenzo[d]thiazol-6-yl)acetic acid] | 7.92 |
| Cc1cc2nc(-c3cnc4c(c3)c(C)cn4C)sc2c(-c2ccc(Cl)cc2)c1[C@H](OC(C)(C)C)C(=O)O [Compound 198, (S)-2-tert-butoxy-2-(7-(4-chlorophenyl)-2-(1,3-dimethyl-1H-pyrrolo[2,3-b]pyridin-5-yl)-5-methylbenzo[d]thiazol-6-yl)acetic acid] | 7.41 |
| Cc1cc2nc(-c3ccc4nc(C)n([C@H]5CCN(C)C5)c4c3)sc2c(-c2ccc(Cl)cc2)c1[C@H](OC(C)(C)C)C(=O)O [Compound 200, (S)-2-tert-butoxy-2-(7-(4-chlorophenyl)-5-methyl-2-(2-methyl-1-((S)-1-methylpyrrolidin-3-yl)-1H-benzo[d]imidazol-6-yl)benzo[d]thiazol-6-yl)acetic acid] | 7.85 |
| Cc1cc2nc(-c3cnnc(-c4ccc5c(cnn5C)c4)c3)sc2c(-c2ccc(Cl)cc2)c1[C@H](OC(C)(C)C)C(=O)O [Compound 201, (S)-2-tert-butoxy-2-(7-(4-chlorophenyl)-5-methyl-2-(6-(1-methyl-1H-indazol-5-yl)pyridazin-4-yl)benzo[d]thiazol-6-yl)acetic acid] | 8.15 |
| COc1ccc(-c2nccc(-c3nc4cc(C)c([C@H](OC(C)(C)C)C(=O)O)c(-c5ccc(Cl)cc5)c4s3)n2)cc1OC [Compound 203, (S)-2-tert-butoxy-2-(7-(4-chlorophenyl)-2-(2-(3,4-dimethoxyphenyl)pyrimidin-4-yl)-5-methylbenzo[d]thiazol-6-yl)acetic acid] | 7.92 |
| Cc1cc2nc(-c3ccc(-c4cnn(C)c4C)cc3)sc2c(-c2ccc(Cl)cc2)c1[C@H](OC(C)(C)C)C(=O)O [Compound 204, (S)-2-tert-butoxy-2-(7-(4-chlorophenyl)-2-(4-(1,5-dimethyl-1H-pyrazol-4-yl)phenyl)-5-methylbenzo[d]thiazol-6-yl)acetic acid] | 6.81 |
| Cc1cc2nc(-c3ccnc(C4CCN(C)CC4)n3)sc2c(-c2ccc(Cl)cc2)c1[C@H](OC(C)(C)C)C(=O)O [Compound 205, (S)-2-tert-butoxy-2-(7-(4-chlorophenyl)-5-methyl-2-(2-(1-methylpiperidin-4-yl)pyrimidin-4-yl)benzo[d]thiazol-6-yl)acetic acid] | 7.74 |
| Cc1cc2nc(N3CCc4ncccc4C3)sc2c(-c2ccc(Cl)cc2)c1[C@H](OC(C)(C)C)C(=O)O [Compound 207, (S)-2-tert-butoxy-2-(7-(4-chlorophenyl)-2-(7,8-dihydro-1,6-naphthyridin-6(5H)-yl)-5-methylbenzo[d]thiazol-6-yl)acetic acid] | 7.72 |
| Cc1cc2nc(N3CCc4ccccc4C3)sc2c(-c2ccc(Cl)cc2)c1[C@H](OC(C)(C)C)C(=O)O [Compound 208, (S)-2-tert-butoxy-2-(7-(4-chlorophenyl)-2-(3,4-dihydroisoquinolin-2(1H)-yl)-5-methylbenzo[d]thiazol-6-yl)acetic acid] | 7.21 |
| Cc1cc2nc(-c3ccc4c(C)nn(C)c4c3)sc2c(-c2ccc(Cl)cc2)c1[C@H](OC(C)(C)C)C(=O)O [Compound 209, (S)-2-tert-butoxy-2-(7-(4-chlorophenyl)-2-(1,3-dimethyl-1H-indazol-6-yl)-5-methylbenzo[d]thiazol-6-yl)acetic acid] | 7.80 |
| Cc1cc2nc(-c3ccc4c(c3)nnn4C)sc2c(-c2ccc(Cl)cc2)c1[C@H](OC(C)(C)C)C(=O)O [Compound 210, (S)-2-tert-butoxy-2-(7-(4-chlorophenyl)-5-methyl-2-(1-methyl-1H-benzo[d][1,2,3]triazol-5-yl)benzo[d]thiazol-6-yl)acetic acid] | 8.22 |

same assay, conditions: Table 2; MT-4 cells infected with HIV-IIIb, 5 days of incubation, CellTiter-Glo; read-out: EC50

| Compound | pEC50 |
| --- | --- |
| Cc1cc2nc(-c3ccnc(-c4cnc5c(c4)c(C)cn5C)c3)sc2c(-c2ccc(Cl)cc2)c1[C@H](OC(C)(C)C)C(=O)O [Compound 199, (S)-2-tert-butoxy-2-(7-(4-chlorophenyl)-2-(2-(1,3-dimethyl-1H-pyrrolo[2,3-b]pyridin-5-yl)pyridine-4-yl)-5-methylbenzo[d]thiazol-6-yl)acetic acid] | 7.02 |

From patent publication US8987250B2 (Gilead Sciences, Inc., priority 2012, dated 2015)
